Experimental data: patent publication US20190321429A1, “TOPICAL NATURAL LITHRAEA CAUSTICA EXTRACT COMPOSITION AND USE THEREOF IN TUMOURS” (UNIVERSIDAD DE SANTIAGO DE CHILE, priority 2016, published 2019)

Columns and labels:
[1] = test system: spleen lymphocyte populations; assay: T lymphocyte populations in spleen of tumor-challenged treated mice (CD4, CD8, Treg, Th1, Th17); format: in vivo; conditions: b6 mice
Protocol: To analyze the effects of this treatment on lymphocyte populations T to determine if there was an analogy to these clinical cases effect, the treatment effect level spleen lymphocyte populations CD4 and CD8 was evaluated also subpopulations CD4 CD25 foxp3 which realizes regulatory T cells, the CD4+population Tbet+which realizes THL population and the presence of CD4+population+Ror range which realizes TH17 population. Treatment with DPCP associated tumor challenge, induced an increase in Th1 population present in spleen (FIG. 3). The analysis of mice treated b6 at least 8 experiment allows the characterization that this population increased compared to control animals, however, not be significant. […] Value p=0.59.
As for the previous case, it was determined that the effect of treatment, this time with DNCB on lymphocyte populations T as in previous case Treg (FIG. 8), Th1 (FIGS. 9A and 9B) and Th17 (FIG. 10) in b6 mice. […] Analysis of at least 8 animals per treatment let characterize the increase in this population is significant.
Finally, for the case of animals treated with liter extract, it was observed that tumor level, two behaviors that may indicate a temporary dynamic behavior of cell populations response to tumor level. […] Furthermore, the bearings of the other populations are inconclusive (FIG. 17B, 17C and 17D).

[2] = test system: B16 murine melanoma model; assay: Transplanted B16 melanoma tumor model in B6 mice: tumor appearance and growth under topical treatment; format: in vivo
Protocol: The effect of topical treatment with 0.1% diphencyprone in mice of the B6 strain transplanted tumor model was evaluated bl6. For which initially the animals were challenged with live cells reaching generating detectable tumors between 10 days until day 20 post challenge (FIG. 1). Tumor growth has a linear behavior reaching a peak at day 7 post near challenge (FIG. 2, black circles). […] For both cases the analysis of linear growth curves of both has no significant difference when comparing the slopes. Value p=0.85.

[3] = treatment associated with tumor challenge, versus control animals

## O=c1c(-c2ccccc2)c1-c1ccccc1 [DPCP, diphencyprone]
[1]; [3]
  Th1 population (CD4+ Tbet+) present in spleen: increase
  Th17 population (CD4+ Ror gamma+) present in spleen: showed no change
  Treg population (CD4 CD25 foxp3) in spleen: showed no change
[1]; tumor challenge
  CD8 or CD4 populations associated with treatment: No significant changes
[2]; mice, DPCP 0.1% to 1%
  overall effect of curative treatment on tumor model: not have major effects
[2]; topical 0.1% DPCP, B6 mice
  Tumor growth (time 0 = tumor mass detected) versus control animals treated with excipients: no difference
[2]; topical 0.1% diphencyprone, B6 mice, post challenge, shift from 13 days, change not significant
  tumor appearance, average detection: 16 days
